Data set [1] has as its system DiD-labeled DENV. The experiment in a line: Fusion assay with DiD-labeled DENV. The format is cell-based, dengue virus. The note with it: BS-C-1 cells; for membrane fusion activity of DENV, reference controls: NH4Cl 50 mM, chlorpromazine 60 µM.
Data set [2] relates to DENV-2 NGC. The format is cell-based, dengue virus.
For data set [3], the system named is YFV-17D. The format is cell-based, yellow fever virus.
Data set [4] concerns dengue reporter virus. Format: cell-based.
Data set [5] has as its system YFV-17D. Format: cell-based, yellow fever virus. The source holds these as a separate data set.
Data set [6] has as its system DENV subgenomic replicon. Put plainly: DENV replicon system. The note with it: BHK-Rep-Pac-LUC cells, luciferase at 72 hours. The format is cell-based, dengue virus. A general note: A replicon is a self-replicating genome or part of one, used to study replication in cells.
The test system of data set [7] is uninfected host cell cultures. Put plainly: Cell counting with a Coulter Counter. Format: cell-based. The note with it: 50 and 100 µM, cells counted with a Coulter Counter.
For data set [8], the system named is Vero-B cells.
The subject of data set [9] is P388D1 cells.
In data set [10] the test system is DENV-2. The experiment in a line: Virucidal assay. The note with it: 50 µM, 1 h, 37°C, with or without RNase A.
The test system of data set [11] is DENV-2 NGC. Put plainly: CPE-reduction assay. The following applies: 25 and 12.5 µM, Vero-B cells, day 8 p.i.

Bounds are passed on as bounds.

Consider `CN(C)CCCN1c2ccccc2Sc2ccc(Cl)cc21` [chlorpromazine], for which the “membrane fusion activity of DENV, reference controls” value in data set [1] is recorded as “efficiently reduced”.
For the compound `CC(C)(C)OC(=O)NC1C(=O)NC2Cc3ccc(c(Cl)c3)Oc3cc4cc(c3O)Oc3ccc(cc3Cl)C(O)C3NC(=O)C(NC(=O)C4NC(=O)C(NC2=O)c2cc(O)cc(c2)Oc2cc1ccc2O)c1ccc(O)c(c1)-c1c(O)cc(O)cc1C(C(=O)NC1C2CC4CC(C2)CC1C4)NC3=O` (centres unmarked) [LCTA-949], in data set [2], the “DENV E protein expression” value is given as “completely inhibited”. Besides, the “YFV NS1 protein expression” value in [3] was “completely inhibited”. Also, in data set [4], the “inhibition of DENV infection” value is listed as “failed to efficiently inhibit”; the “inhibition of viral replication and viral antigen expression” value is listed as “nearly complete inhibition”. Further, in [5], the “inhibition of viral replication” value was “nearly complete inhibition” and the “protective activity against YFV” value is given as “most of the protective activity of LCTA-949 was already lost”. Besides, the “replication of the DENV subgenomic replicon” value in [6] is on record as “did not inhibit”. Also, the “membrane fusion activity of DENV” value in data set [1] (20 min p.i. at 37°C, 6.25-25.0 µM) was “markedly impaired”. For the same compound, the cytostatic effects entry in data set [7] is “some cytostatic effects”. In [8], the cytotoxicity entry was “did not prove cytotoxic” and the “viability of uninfected host cell cultures” value is listed as “did not reduce viability”. Moreover, in data set [8] (green monkey), the 50% cytotoxic concentration (CC50) was above 100 µM. The cytotoxic effects entry in [9] is listed as “No cytotoxic effects”. In data set [10], the direct virucidal activity entry was “does not destroy the viral particle”. The “DENV-2-induced CPE formation” value in [11] was “completely inhibited”.
`Cl.N` [ammonium chloride]: the “membrane fusion activity of DENV, reference controls” value in data set [1] is “efficiently reduced”.

As usually defined, the CC50 is the concentration giving 50% cytotoxicity.

The values are drawn from paper PMC3356272, “An Analogue of the Antibiotic Teicoplanin Prevents Flavivirus Entry In Vitro” (PLoS ONE, 2012).
